Data reported in ChEMBL document CHEMBL3832761, “MMV Pathogen Box Bioactivity Data” (2017).
In brackets after ≈: the same amount, converted by molar mass.

How the values were obtained:
Plasmodium falciparum [1] = assay: Antimalarial activity: Gametocytes Plasmodium falciparum NF54 Gametocytes Stage V IC50 (uM); format: functional, organism-based
Plasmodium berghei [2] = assay: Antimalarial activity: Liver Stage Plasmodium berghei sporozoite Luciferase assay: inhibition at 10 uM (%); format: functional
HepG2 [3] = assay: Cytotoxicity data HepG2 CC20 (uM); format: functional
Plasmodium falciparum [4] = assay: Antimalarial activity: Asexual Blood Stage Plasmodium falciparum 3D7 IC50 (uM); format: functional, organism-based
Plasmodium falciparum [5] = assay: Antimalarial activity: Asexual Blood Stage Plasmodium falciparum Dd2 IC50 (uM); format: functional, organism-based
Plasmodium berghei [6] = assay: Antimalarial activity: Liver Stage Plasmodium berghei sporozoite Luciferase assay IC50 (uM); format: functional, organism-based
HepG2 [7] = assay: HepG2 CC50 (uM) Cytotoxicity; format: functional; conditions: Homo sapiens
Plasmodium falciparum [8] = assay: Antimalarial activity: Gametocytes Plasmodium falciparum NF54 Gametocytes Stage V: inhibition at 10 uM (%); format: functional
Plasmodium falciparum [9] = assay: Antimalarial activity: Asexual Blood Stage Plasmodium falciparum W2 IC50 (uM); format: functional, organism-based
HepG2 [10] = assay: HepG2 inhibition at 10 uM (%) Cytotoxicity; format: functional; conditions: Homo sapiens
[11] = tested on: Mycobacterium tuberculosis; assay: AntiMycobacterium tuberculosis activity 2-week 7H9/DPPC/cholesterol/BSA/Tx MIC (uM); format: functional; conditions: 336 h
[12] = tested on: Mycobacterium tuberculosis; assay: AntiMycobacterium tuberculosis activity 2-week 7H9/ADC/Tw MIC (uM); format: functional; conditions: 336 h
[13] = tested on: Mycobacterium tuberculosis; assay: AntiMycobacterium tuberculosis activity 1-week 7H9/glucose/BSA/Tx MIC (uM); format: functional; conditions: 168 h
[14] = tested on: Mycobacterium tuberculosis; assay: AntiMycobacterium tuberculosis activity 1-week GAST/Fe MIC (uM); format: functional; conditions: 168 h
HepG2 [15] = assay: HepG2 galactose CC50 (uM) Cytotoxicity; format: functional
[16] = tested on: Mycobacterium tuberculosis; assay: AntiMycobacterium tuberculosis activity 1-week 7H9/DPPC/cholesterol/BSA/Tx MIC (uM); format: functional; conditions: 168 h
[17] = tested on: Mycobacterium tuberculosis; assay: AntiMycobacterium tuberculosis activity 1-week 7H9/ADC/Tw MIC (uM); format: functional; conditions: 168 h
[18] = tested on: Mycobacterium tuberculosis; assay: (§1) AntiMycobacterium tuberculosis activity day 10 in 7H9/2.5mM butyrate/pH6/0.1mM nitrite MIC90 (uM); format: functional; conditions: 240 h
[19] = tested on: Mycobacterium tuberculosis; assay: AntiMycobacterium tuberculosis activity 2-week Alamar Blue 7H9/cholesterol/BSA/Tx MIC (uM); format: functional; conditions: 336 h
[20] = tested on: Mycobacterium tuberculosis; assay: AntiMycobacterium tuberculosis activity 1-week 7H9/cholesterol/BSA/Tx MIC (uM); format: functional; conditions: 168 h
[21] = tested on: Mycobacterium tuberculosis; assay: AntiMycobacterium tuberculosis activity 2-week Alamar Blue 7H9/ADC/Tw MIC (uM); format: functional; conditions: 336 h
HepG2 [22] = assay: HepG2 glucose CC50 (uM) Cytotoxicity; format: functional
[23] = tested on: Mycobacterium tuberculosis; assay: as §1; format: functional; conditions: 240 h; remark: listed apart in the source
[24] = tested on: Mycobacterium tuberculosis; assay: AntiMycobacterium tuberculosis activity day 21 in 7H9/2.5mM butyrate/pH6/0.1mM nitrite MIC90 (uM); format: functional; conditions: 504 h
[25] = tested on: Mycobacterium tuberculosis; assay: AntiMycobacterium tuberculosis activity day 21 MIC99 in 7H9/2.5mM butyrate/pH6/0.1mM nitrite MIC99 (uM); format: functional; conditions: 504 h
[26] = tested on: Mycobacterium tuberculosis; assay: AntiMycobacterium tuberculosis activity 2-week 7H9/glucose/BSA/Tx MIC (uM); format: functional; conditions: 336 h
[27] = tested on: Mycobacterium tuberculosis; assay: AntiMycobacterium tuberculosis activity 2-week GAST/Fe MIC (uM); format: functional; conditions: 336 h

Row | SMILES | IC50 (Plasmodium falciparum [1]) [nM] | IC50 (Plasmodium falciparum [4]) [nM] | IC50 (Plasmodium falciparum [5]) [nM] | MIC [11] [µM] | MIC [12] [µM] | MIC [13] [µM] | MIC [14] [µM] | CC50 (HepG2 [15]; Homo sapiens, HepG2) [µM] | MIC [16] [µM] | MIC [17] [µM] | MIC90 [18] [µM] | MIC [19] [µM] | MIC [20] [µM] | MIC [21] [µM] | CC50 (HepG2 [22]; Homo sapiens, HepG2) [µM] | MIC90 [23] [µM] | MIC90 [24] [µM] | MIC [25] [µM] | MIC [26] [µM] | MIC [27] [µM] | other results
1 | c1ccc(-c2cc(N3CCCCC3)c3ccccc3n2)nc1 | 510 | > 2000 | > 2000 |  |  |  |  |  |  |  |  |  |  |  |  |  |  |  |  |  | Inhibition (Plasmodium berghei [2]): 92%; CC20 (HepG2 [3]): 22.9 µM; IC50 (Plasmodium berghei [6]): 9.7 µM; CC50 (HepG2 [7]): > 10 µM; Inhibition (Plasmodium falciparum [8]): 93%
2 | Nc1nccc2ccc(-c3ccc4nccn4c3)cc12 | 400 | 160 | 260 |  |  |  |  |  |  |  |  |  |  |  |  |  |  |  |  |  | Inhibition (Plasmodium berghei [2]): 56%; CC20 (HepG2 [3]): 5.41 µM; IC50 (Plasmodium falciparum [9]): 370 nM; inhibition at 10 µM (HepG2 [10]): 50%; Inhibition (Plasmodium falciparum [8]): 95%
3 | COc1cccc(-n2nnnc2S(=O)(=O)Cc2ccccc2)c1 |  |  |  | 50 (≈ 16.5 µg/mL) | 37 (≈ 12.2 µg/mL) | 12.5 (≈ 4.13 µg/mL) | 1.2 (≈ 0.396 µg/mL) | 28.5 | 25 (≈ 8.26 µg/mL) | 25 (≈ 8.26 µg/mL) | 6.25 (≈ 2.06 µg/mL) | 50 (≈ 16.5 µg/mL) | 25 (≈ 8.26 µg/mL) | 25 (≈ 8.26 µg/mL) | 19.1 | 3.12 (≈ 1.03 µg/mL) | 6.25 (≈ 2.06 µg/mL) | 6.25 (≈ 2.06 µg/mL) | 37 (≈ 12.2 µg/mL) | 1.56 (≈ 0.515 µg/mL) | CC50 (HepG2 [15]): 30.6 µM; CC50 (HepG2 [22]): 17.9 µM
4 | O=C(Nc1nc(-c2ccccn2)cs1)C1CC1c1ccccc1F (stereo not drawn) | 520 | > 2000 | > 2000 |  |  |  |  |  |  |  |  |  |  |  |  |  |  |  |  |  | inhibition at 10 µM (HepG2 [10]): 25%
5 | CN1CCN(c2cc(-c3ccc(F)cc3)nc(-c3ccncc3)n2)CC1 |  |  |  | 6.25 (≈ 2.18 µg/mL) | 25 (≈ 8.74 µg/mL) | 12.5 (≈ 4.37 µg/mL) | 19 (≈ 6.64 µg/mL) | > 50 | 6.25 (≈ 2.18 µg/mL) | 37 (≈ 12.9 µg/mL) | > 50 | 6.25 (≈ 2.18 µg/mL) | 12.5 (≈ 4.37 µg/mL) | 12.5 (≈ 4.37 µg/mL) | > 50 | 6.25 (≈ 2.18 µg/mL) | 12.5 (≈ 4.37 µg/mL) | > 50 | 9.4 (≈ 3.28 µg/mL) | 12.5 (≈ 4.37 µg/mL) | 
6 | CC(=O)NC[C@H]1CN(c2ccc(N3CCSCC3)c(F)c2)C(=O)O1 [SUTEZOLID] |  |  |  | 1.2 (≈ 0.424 µg/mL) | 1.2 (≈ 0.424 µg/mL) | 0.6 (≈ 0.212 µg/mL) | 0.2 (≈ 0.0707 µg/mL) | > 50 | 0.6 (≈ 0.212 µg/mL) | 1.2 (≈ 0.424 µg/mL) | 0.39 (≈ 0.138 µg/mL) | 0.78 (≈ 0.276 µg/mL) | 0.39 (≈ 0.138 µg/mL) | 0.78 (≈ 0.276 µg/mL) | > 50 | 0.19 (≈ 0.0671 µg/mL) | 0.39 (≈ 0.138 µg/mL) | 0.78 (≈ 0.276 µg/mL) | 1.2 (≈ 0.424 µg/mL) | 0.6 (≈ 0.212 µg/mL) | 
7 | O=C(c1ccco1)N(CCCn1ccnc1)c1nc2c(Cl)cccc2s1 |  |  |  | 37 (≈ 14.3 µg/mL) | 50 (≈ 19.3 µg/mL) | 50 (≈ 19.3 µg/mL) | 25 (≈ 9.67 µg/mL) | > 50 | 37 (≈ 14.3 µg/mL) | ≥ 50 | > 50 | 12.5 (≈ 4.84 µg/mL) | 12.5 (≈ 4.84 µg/mL) | 25 (≈ 9.67 µg/mL) | > 50 | 25 (≈ 9.67 µg/mL) | 25 (≈ 9.67 µg/mL) | > 50 | 37 (≈ 14.3 µg/mL) | 37 (≈ 14.3 µg/mL) | 
8 | Cc1ccccc1CN1CCC(O)(c2ccc(Cl)c(C(F)(F)F)c2)CC1 |  |  |  | 0.78 (≈ 0.299 µg/mL) | 0.39 (≈ 0.15 µg/mL) | 0.39 (≈ 0.15 µg/mL) | 0.3 (≈ 0.115 µg/mL) | > 50 | 0.6 (≈ 0.23 µg/mL) | 0.39 (≈ 0.15 µg/mL) | 12.5 (≈ 4.8 µg/mL) | 0.78 (≈ 0.299 µg/mL) | 0.6 (≈ 0.23 µg/mL) | 0.39 (≈ 0.15 µg/mL) | > 50 | 3.12 (≈ 1.2 µg/mL) | 3.12 (≈ 1.2 µg/mL) | 25 (≈ 9.6 µg/mL) | 1.2 (≈ 0.461 µg/mL) | 0.3 (≈ 0.115 µg/mL) | 
9 | CS(=O)(=O)Cc1nc2ccccc2oc1=O |  |  |  | 6.25 (≈ 1.5 µg/mL) | 9.4 (≈ 2.25 µg/mL) | 9.4 (≈ 2.25 µg/mL) | 0.78 (≈ 0.187 µg/mL) | > 50 | 6.25 (≈ 1.5 µg/mL) | 19 (≈ 4.55 µg/mL) | 12.5 (≈ 2.99 µg/mL) | 6.25 (≈ 1.5 µg/mL) | 6.25 (≈ 1.5 µg/mL) | 6.25 (≈ 1.5 µg/mL) | > 50 | 3.12 (≈ 0.746 µg/mL) | 3.12 (≈ 0.746 µg/mL) | 12.5 (≈ 2.99 µg/mL) | 9.4 (≈ 2.25 µg/mL) | 1.56 (≈ 0.373 µg/mL) | 
10 | CNC(=O)CNc1nc(-c2ccccn2)nc2scc(-c3ccccc3)c12 | 840 | > 2000 | > 2000 |  |  |  |  |  |  |  |  |  |  |  |  |  |  |  |  |  | inhibition at 10 µM (HepG2 [10]): 4%
